Patent US11517018B2, “Herbicidal composition comprising cinmethylin and saflufenacil” (BASF Agro B.V., priority 2015, dated 2022)

Legend:
Format in all cases: in vivo
Sorghum halepense [1] = test: Greenhouse preemergence herbicidal activity, SORHA; conditions: 20 DAT
Method: (§1) The test plants have been seeded, separately for each species, in plastic containers in sandy loamy soil containing 5% of organic matter.
(§2) The containers were irrigated gently to promote germination and growth and subsequently covered with transparent plastic hoods until the plants had rooted.
(§3) The plants have been cultivated due to their individual requirements at 10-25° C. and 20-35° C. The plants were irrigated due to their necessity.
(§4) In the following experiments, the herbicidal activity for the individual herbicidal compositions (solo and mixture applications) was assessed 20 days after treatment (DAT).
(§5) The evaluation for the damage on undesired weeds caused by the chemical compositions was carried out using a scale from 0 to 100%, compared to the untreated control plants. Here, 0 means no damage and 100 means complete destruction of the plants.
(§6) E=X+Y−(X·Y/100) where • X=effect in percent using herbicide A at an application rate a; • Y=effect in percent using herbicide B at application rate b; • E=expected effect (in %) of herbicide A+herbicide B at application rates a+b.
(§7) The value E corresponds to the effect (plant damage or injury) which is to be expected if the activity of the individual compounds is additive. If the observed effect is higher than the value E calculated according to the Colby equation, a synergistic effect is present.

Lolium multiflorum [2] = test: Greenhouse postemergence herbicidal activity, LOLMU; conditions: 20 DAT
Method: as §1
(§8) For the post emergence treatment, the plants were first grown to the 2 leaf station (GS 12). Here, the herbicidal compositions were suspended or emulsified in water as distribution medium and sprayed using finely distributing nozzels.
as §3, §4, §5, §6, §7

Stellaria media [3] = test: Greenhouse preemergence herbicidal activity, STEME; conditions: 20 DAT
Method: as §1, §2, §3, §4, §5, §6, §7

Stellaria media [4] = test: Greenhouse postemergence herbicidal activity, STEME; conditions: saflufenacil solo 0.625 g ai/ha, 20 DAT
Method: as §1, §8, §3, §4, §5, §6, §7

Sorghum halepense [5] = test: Greenhouse postemergence herbicidal activity, SORHA; conditions: saflufenacil solo 5 g ai/ha, 20 DAT
Method: as §1, §8, §3, §4
The evaluation for the damage on undesired weeds caused by the chemical compositions was carried out using a scale from 0 to 100%, compared to the untreated control plants. Here, 0 means no damage and 100 means complete destruction of the plants. […]
as §7

Polygonum convolvulus = test: Greenhouse preemergence herbicidal activity, POLCO; conditions: 20 DAT
Method: as §1, §2, §3, §4, §5, §6, §7

Avena fatua [6] = test: Greenhouse postemergence herbicidal activity, AVEFA; conditions: 20 DAT
Method: as §1, §8, §3, §4, §5, §6, §7

Chenopodium album = test: Greenhouse preemergence herbicidal activity, CHEAL; conditions: saflufenacil solo 25 g ai/ha, 20 DAT
Method: as §1, §2, §3, §4, §5, §6, §7

Digitaria sanguinalis = test: Greenhouse postemergence herbicidal activity, DIGSA; conditions: saflufenacil solo 1.25 g ai/ha, 20 DAT
Method: as §1, §8, §3, §4, §5, §6, §7

Avena fatua [7] = test: Greenhouse preemergence herbicidal activity, AVEFA; conditions: 20 DAT
Method: as §1, §2, §3, §4, §5, §6, §7

Alopecurus myosuroides = test: Greenhouse preemergence herbicidal activity, ALOMY; conditions: 20 DAT
Method: as §1, §2, §3, §4, §5, §6, §7

Galium aparine = test: Greenhouse preemergence herbicidal activity, GALAP; conditions: 20 DAT
Method: as §1, §2, §3, §4, §5, §6, §7

Abutilon theophrasti = test: Greenhouse preemergence herbicidal activity, ABUTH; conditions: 20 DAT
Method: as §1, §2, §3, §4, §5, §6, §7

Geranium dissectum = test: Greenhouse preemergence herbicidal activity, GERDI; conditions: 20 DAT
Method: as §1, §2, §3, §4, §5, §6, §7

Papaver rhoeas = test: Greenhouse preemergence herbicidal activity, PAPRH; conditions: 20 DAT
Method: as §1, §2, §3, §4, §5, §6, §7

Setaria viridis = test: Greenhouse preemergence herbicidal activity, SETVI; conditions: 20 DAT
Method: as §1, §2, §3, §4, §5, §6, §7

Lolium multiflorum [8] = test: Greenhouse preemergence herbicidal activity, LOLMU; conditions: 20 DAT
Method: as §1, §2, §3, §4, §5, §6, §7

[9] = saflufenacil solo 0.625 g ai/ha

`CC(C)N(C)S(=O)(=O)NC(=O)c1cc(-n2c(=O)cc(C(F)(F)F)n(C)c2=O)c(F)cc1Cl` [saflufenacil, N′-{2-chloro-4-fluoro-5-[1,2,3,6-tetrahydro-3-methyl-2,6-dioxo-4-(trifluoromethyl)pyrimidin-1-yl]benzoyl}-N-isopropyl-N-methylsulfamide] was tested, and the herbicidal activity (Sorghum halepense [1]; saflufenacil solo 6.25 g ai/ha) was 0%, the herbicidal activity (Sorghum halepense [1]; saflufenacil solo 12.5 g ai/ha) was 10% and the herbicidal activity (Sorghum halepense [1]; saflufenacil solo 25 g ai/ha) was 30%. It also gave a herbicidal activity (Lolium multiflorum [2]; [9]) of 0%, a herbicidal activity (Lolium multiflorum [2]; saflufenacil solo 1.25 g ai/ha) of 0% and a herbicidal activity (Lolium multiflorum [2]; saflufenacil solo 5 g ai/ha) of 50%. It also gave a herbicidal activity (Stellaria media [3]; saflufenacil solo 4.4 g ai/ha) of 90%, a herbicidal activity (Stellaria media [3]; saflufenacil solo 6.25 g ai/ha) of 95% and a herbicidal activity (Stellaria media [4]) of 85%. For the same compound, the herbicidal activity (Sorghum halepense [5]) was 65%, the herbicidal activity (Polygonum convolvulus; saflufenacil solo 3.13 g ai/ha) was 20% and the herbicidal activity (Polygonum convolvulus; saflufenacil solo 6.25 g ai/ha) was 98%. For the same compound, the herbicidal activity (Polygonum convolvulus; saflufenacil solo 8.8 g ai/ha) was 90%, the herbicidal activity (Avena fatua [6]; [9]) was 0% and the herbicidal activity (Avena fatua [6]; saflufenacil solo 1.25 g ai/ha) was 0%. For the same compound, the herbicidal activity (Avena fatua [6]; saflufenacil solo 5 g ai/ha) was 0%, the herbicidal activity (Chenopodium album; CHEAI) was 90% and the herbicidal activity (Chenopodium album; CHEAL) was 90%. For the same compound, the herbicidal activity (Digitaria sanguinalis) was 75%, the herbicidal activity (Avena fatua [7]; saflufenacil solo 4.4 g ai/ha) was 0% and the herbicidal activity (Avena fatua [7]; saflufenacil solo 6.25 g ai/ha) was 0%. For the same compound, the herbicidal activity (Avena fatua [7]; saflufenacil solo 8.8 g ai/ha) was 0%, the herbicidal activity (Avena fatua [7]; saflufenacil solo 12.5 g ai/ha) was 0% and the herbicidal activity (Avena fatua [7]; saflufenacil solo 35 g ai/ha) was 20%. It also gave a herbicidal activity (Avena fatua [7]; saflufenacil solo 50 g ai/ha) of 0%, a herbicidal activity (Alopecurus myosuroides; saflufenacil solo 4.4 g ai/ha) of 0% and a herbicidal activity (Alopecurus myosuroides; saflufenacil solo 8.8 g ai/ha) of 0%. The herbicidal activity (Alopecurus myosuroides; saflufenacil solo 25 g ai/ha) was 0%, the herbicidal activity (Galium aparine; saflufenacil solo 3.13 g ai/ha) was 0% and the herbicidal activity (Galium aparine; saflufenacil solo 6.25 g ai/ha) was 20%. For the same compound, the herbicidal activity (Galium aparine; saflufenacil solo 17.5 g ai/ha) was 95%, the herbicidal activity (Galium aparine; saflufenacil solo 25 g ai/ha) was 98% and the herbicidal activity (Abutilon theophrasti; saflufenacil solo 4.4 g ai/ha) was 65%. For the same compound, the herbicidal activity (Abutilon theophrasti; saflufenacil solo 6.25 g ai/ha) was 98%, the herbicidal activity (Abutilon theophrasti; saflufenacil solo 8.8 g ai/ha) was 85% and the herbicidal activity (Abutilon theophrasti; saflufenacil solo 12.5 g ai/ha) was 98%. The herbicidal activity (Geranium dissectum; saflufenacil solo 3.13 g ai/ha) was 20%, the herbicidal activity (Geranium dissectum; saflufenacil solo 17.5 g ai/ha) was 80% and the herbicidal activity (Papaver rhoeas; saflufenacil solo 3.13 g ai/ha) was 95%. It also gave a herbicidal activity (Papaver rhoeas; saflufenacil solo 4.4 g ai/ha) of 85%, a herbicidal activity (Papaver rhoeas; saflufenacil solo 6.25 g ai/ha) of 90% and a herbicidal activity (Setaria viridis; saflufenacil solo 4.4 g ai/ha) of 0%. For the same compound, the herbicidal activity (Setaria viridis; saflufenacil solo 25 g ai/ha) was 60%, the herbicidal activity (Setaria viridis; saflufenacil solo 50 g ai/ha) was 65% and the herbicidal activity (Lolium multiflorum [8]; saflufenacil solo 3.13 g ai/ha) was 0%. The herbicidal activity (Lolium multiflorum [8]; saflufenacil solo 12.5 g ai/ha) was 0%.
